Tests used:
[1] = Stability in medium (containing FBS); format: in vitro ADME
Excerpt: (§1) Subsequently, PEG11(E)-TC11 was examined for stability in mouse blood plasma (A) and in medium (B). […] Such degradation is considered to result from a small amount of esterase in FBS (fetal calf serum) contained in the medium.

[2] = system: various high-risk MM cells (KMM1, KMS11, KMS21, KMS26, KMS27, KMS28, KMS34, MUM24); assay: MTT cell viability of various MM cells, PEG11(E)-TC11 vs lenalidomide (Example 9); format: cell-based, human; conditions: 48 hours, FIG. 5A
[3] = Stability in mouse blood plasma; format: in vitro ADME
Excerpt: as §1

[4] = system: KMS11 high-risk MM cell line; assay: WST-1 cell proliferation inhibition (Example 8), KMS11; format: cell-based; conditions: Homo sapiens, KMS-11, WST-1, 48 hours, read-out: IC50, cell proliferation inhibitory activity, KMS11
Procedure: (§2) Similar to Example 7, high-risk MM cell lines were treated with drugs, TC11 and PEG5(E)-TC11 at arbitrary concentrations. […] Specifically, each high-risk MM cell line was prepared at 5×10^5 cells/ml, and then seeded at 50 μl per well (2.5×10^4 cells). Drugs such as TC11, and PEG5(E)-TC11 were added to wells at arbitrary concentrations. WST-1 reagent was added at 48 hours after addition of drugs. After 1 hour of reaction at 37° C. in a CO2 incubator, absorbance was measured at a wavelength of 450 nm using a microplate reader. Cell viability was found from an absorbance ratio using absorbance at 0 μM designated as 100%. IC50 was calculated from a semi-logarithmic chart using Microsoft (registered trademark) Excel.

[5] = Mouse blood kinetics upon single intraperitoneal administration; format: in vivo; conditions: male, ICR, plasma, ip, mice, single intraperitoneal TC11 60 mg/kg BW
Procedure: First, PEG11(E)-TC11(A) and PEG11(O)-TC11(B) were examined for stability in mouse blood. To 5-week-old male ICR mice (CLEA Japan, Tokyo, Japan), PEG11(E)-TC11 and PEG11(O)-TC11 were administered intraperitoneally at 59.1 mg/kg BW and 54.6 mg/kg BW, respectively, in such a manner that each molar concentration was equivalent to that of 20 mg/kg BW of TC11. At 0, 0.5, 1, 1.5, 4, 8, 12, and 24 hours later, a tail vein was punctured with a 26G needle for bleeding, and then about 100 μL of blood was collected using a heparinized hematocrit capillary tube (Terumo, Tokyo, Japan). After blood collection, blood was transferred into a 0.5-mL tube, and then subjected to centrifugation at 4° C. and 3,400 G for 15 minutes. Subsequently, the supernatant was collected, and then cryopreserved at −80° C. A quality control serum, Consera (registered trademark) (Nissui pharmaceutical, Tokyo, Japan) was dissolved in 3 mL of distilled water (dH2O) per bottle. After left to stand for 30 minutes, bottles were turned upside-down (mixing by inversion) and then used. Consera (190 μL) was mixed with the collected blood plasma and 10 μL of urine, thereby preparing samples. Moreover, PEG11(E)-TC11 and HOEtO-TC11 were each diluted with dH2O in such a manner that the concentrations were 0, 2, 4, 6, 8, and 10 μM, and then 10 μL of the solution at each concentration and 190 μL of Consera were mixed, thereby preparing a calibration curve sample. […]
HPLC analysis was conducted using Inertsil (registered trademark) ODS-3 […]×Φ4.6 mm as a stationary phase, CH3CN:dH2O=50:50 as a mobile phase, a flow rate of 0.70 mL/min, a UV detection wavelength of 267 nm, and an excitation wavelength of 380 nm, a fluorescence wavelength of 530 nm, and an injection amount of 10 μL at a column temperature of 25° C.
PEG11(E)-TC11 was examined. […] Note that as described in Example 7, since PEG11(E)-TC11 is quickly hydrolyzed by esterase in blood and then converted to HOEtO-TC11, the blood HOEtO-TC11 level was measured.

KMS11 xenograft = assay: Antitumor effect on KMS11 cancer-bearing mice (Example 17); format: in vivo, ICR/SCID mice; conditions: Day 9, i.p., equimolar to TC11 60 mg/kgBW
Procedure: KMS11 was administered to 5-week-old ICR/SCID mice at 2×10^7 cells/mouse via hypodermic injection. Tumor volumes were measured over time, and the day on which the tumor volume exceeded 50 mm^3 was designated as Day 1 and observation was performed for 9 days. […] On the day of administration, these solutions were diluted 10-fold with physiological saline while stirring with Vortex, and then intraperitoneally administered. Tumor volume was calculated by the following formula.
Tumor volume (mm^3)=major axis×minor axis×minor axis×π/6=major axis×minor axis×minor axis×0.5236

[6] = system: KMS34 high-risk MM cell line; assay: WST-1 cell proliferation inhibition (Example 8), KMS34; format: cell-based; conditions: Homo sapiens, KMS-34, WST-1, 48 hours, read-out: IC50, cell proliferation inhibitory activity, KMS34
Procedure: as §2

Row | Stability in medium [1] | Cmax ([5]; read-out: Cmax, highest blood level) [nM] | half-life ([5]; read-out: t1/2, serum half-life (converted)) [min] | Tmax ([5]; read-out: tmax, time at which the blood level reached the highest level) [h] | Compound | In vitro cell proliferation inhibitory activity against various high-risk MM cells [2] | Stability in mouse blood plasma [3] | IC50 [4] [µM] | KMS-11 tumor growth compared to control mice (KMS11 xenograft) | IC50 [6] [µM]
1 | slowly degraded even in medium |  |  |  | COCCOCCOCCOCCOCCOCCOCCOCCOCCOCCOCCOCCC(=O)OCCOc1cc2c(cc1N)C(=O)N(c1c(C(C)C)cccc1C(C)C)C2=O [PEG11(E)-TC11] | significant in vitro cell proliferation inhibitory activity | very quickly hydrolyzed by esterase in mouse blood plasma |  |  | 
2 |  | 2600 | 84 | 1.5 | CC(C)c1cccc(C(C)C)c1N1C(=O)c2ccc(N)cc2C1=O [TC11, 2-(2,6-di-isopropylphenyl)-5-amino-1H-isoindole-1,3-dione, reference compound] |  |  | 3.2 | tumor growth was suppressed | 6.5

From patent US20190315775A1, “MODIFIED […] AND PHARMACEUTICAL COMPOSITION HAVING SAME AS ACTIVE INGREDIENT” (KEIO UNIVERSITY, priority 2016, published 2019)
